Patent publication US12410171B2, “Tropomyosin receptor kinase (TRK) degradation compounds and methods of use” (Cullgen (Shanghai), Inc., priority 2020, dated 2025)
Read-outs that look alike come from different tables or passages of the source.

How the values were obtained:
TPM3-TRKA fusion protein = molecular target: T1, TPM3-TRKA fusion protein (Homo sapiens, UniProt P04629); assay: TPM3-TRKA fusion protein levels in KM12 cells (Western blot); format: cell-based; settings: read-out: Degradation (at 10 nM)
T1 construct: The resulted chimeric proteins always retain the kinase domain of TRK proteins; TPM3 (fusion partner, N-terminal part of tropomyosin alpha-3, P06753); endogenous in cells; host or cells: KM12 colon cancer cells; the other entry of the earlier key: TPM3 (P06753, Tropomyosin alpha-3 chain)
T1 sequence (P04629 with tags, fused parts or gaps): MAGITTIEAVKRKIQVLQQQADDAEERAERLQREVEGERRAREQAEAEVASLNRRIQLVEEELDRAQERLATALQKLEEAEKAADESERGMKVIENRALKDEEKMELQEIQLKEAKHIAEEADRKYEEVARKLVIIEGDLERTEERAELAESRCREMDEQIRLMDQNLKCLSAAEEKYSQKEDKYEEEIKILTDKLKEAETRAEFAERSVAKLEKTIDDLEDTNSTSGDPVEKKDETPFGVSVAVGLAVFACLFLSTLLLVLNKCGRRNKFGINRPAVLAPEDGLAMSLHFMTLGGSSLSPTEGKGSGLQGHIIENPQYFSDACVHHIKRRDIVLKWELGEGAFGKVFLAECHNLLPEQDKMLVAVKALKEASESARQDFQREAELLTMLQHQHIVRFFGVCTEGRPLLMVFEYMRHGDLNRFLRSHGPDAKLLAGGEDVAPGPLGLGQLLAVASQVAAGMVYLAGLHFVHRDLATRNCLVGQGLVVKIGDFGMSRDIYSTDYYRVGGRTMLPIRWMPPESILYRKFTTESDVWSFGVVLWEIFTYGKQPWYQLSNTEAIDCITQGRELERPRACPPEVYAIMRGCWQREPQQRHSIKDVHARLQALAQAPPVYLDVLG
Outline: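 KM12 colon cancer cells were treated with DMSO or compounds at 0.1–100 nM, 0.4–30 nM or other stated concentrations for 4, 8–16 or 16 h. RIPA lysates were BCA-normalized and resolved by SDS-PAGE. TPM3-TRKA was detected by chemiluminescent Western blot, with bands quantified by densitometry.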

KM12 cells = assay: KM12 cell viability (CellTiter-Glo); format: cell-based; settings: Homo sapiens
Outline: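 KM12 cells seeded at 5000 per well in RPMI 1640 + 10% FBS and exposed 3 days to serial dilutions (11-point 3-fold, 8-point 3-fold from 1000 nM, or 12-point 2-fold). Viability by CellTiter-Glo; IC50 from least-squares nonlinear regression.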

[1] = 16 h, TPM3-TRKA degradation in KM12 cells at 10 nM compound, category of percentage degradation
[2] = 72 h, KM12 cell viability, CellTiter-Glo, three days treatment, read-out: IC50
[3] = 16 h, TPM3-TRKA degradation in KM12 cells at 10 nM
[4] = 72 h, KM12 cell viability, 11-point 3-fold serial dilution, 3 days, CellTiter-Glo, read-out: IC50

| percent degradation of TPM3-TRKA protein at 0.01 µM (TPM3-TRKA fusion protein; [1]) | SMILES | IC50 (KM12 cells; [2]) | other results |
| --- | --- | --- | --- |
| > 80% | O=C1CCC(N2C(=O)c3ccc(CN4CCC(N5CCN(c6ccc(C(=O)Nc7n[nH]c8ccc(Cc9cc(F)cc(F)c9)cc78)c(NC7CCOCC7)c6)CC5)CC4)cc3C2=O)C(=O)N1 (stereo not shown) [TR-281, N-(5-(3,5-difluorobenzyl)-1H-indazol-3-yl)-4-(4-(1-((2-(2,6-dioxopiperidin-3-yl)-1,3-dioxoisoindolin-5-yl)methyl)piperidin-4-yl)piperazin-1-yl)-2-((tetrahydro-2H-pyran-4-yl)amino)benzamide] | 17.4 nM |  |
|  | NC(=O)C1CCN(c2cc(CN3CCN(C(=O)CCCNc4cccc5c4C(=O)N(C4CCC(=O)NC4=O)C5=O)CC3)ccc2NC(=O)c2coc(N3CCOCC3)n2)CC1 (stereo not shown) [CPD-480, N-(2-(4-carbamoylpiperidin-1-yl)-4-((4-(4-((2-(2,6-dioxopiperidin-3-yl)-1,3-dioxoisoindolin-4-yl)amino)butanoyl)piperazin-1-yl)methyl)phenyl)-2-morpholinooxazole-4-carboxamide] |  | percent degradation of TPM3-TRKA protein at 0.01 µM (TPM3-TRKA fusion protein; [3]): > 80%; IC50 (KM12 cells; [4]): 22 nM |
| > 80% | O=C1CCC(N2C(=O)c3ccc(NCCOCCOCCOCCOCCC(=O)N4CCN(c5ccc(C(=O)Nc6n[nH]c7ccc(Cc8cc(F)cc(F)c8)cc67)c(NC6CCOCC6)c5)CC4)cc3C2=O)C(=O)N1 (stereo not shown) [TR-140, N-(5-(3,5-Difluorobenzyl)-1H-indazol-3-yl)-4-(4-(1-((2-(2,6-dioxopiperidin-3-yl)-1,3-dioxoisoindolin-5-yl)amino)-3,6,9,12-tetraoxapentadecan-15-oyl)piperazin-1-yl)-2˜ ((tetrahydro-2H-pyran-4-yl)amino)benzamide] | 1.6 nM |  |
| > 80% | Cn1c(=O)n(C2CCC(=O)NC2=O)c2ccc(C#CCCN3CCN(c4cccc(-c5cnc6ccc(N7CCC[C@@H]7c7cccc(F)c7)nn56)n4)CC3)cc21 (stereo partly drawn) [TR-260, 3-(5-(4-(4-(6-(6-((R)-2-(3-fluorophenyl)pyrrolidin-1-yl)imidazo[1,2-b]pyridazin-3-yl)pyridin-2-yl)piperazin-1-yl)but-1-yn-1-yl)-3-methyl-2-oxo-2,3-dihydro-1H-benzo[d]imidazol-1-yl)piperidine-2,6-dione] | 26.4 nM |  |
| 50 to 80% | O=C1CCC(n2c(=O)n(CCN3CCN(c4cccc(-c5cnc6ccc(N7CCC[C@@H]7c7cccc(F)c7)nn56)n4)CC3)c3ccccc32)C(=O)N1 (stereo partly drawn) [TR-227, 3-(3-(2-(4-(6-(6-((R)-2-(3-Fluorophenyl)pyrrolidin-1-yl)imidazo[1,2-b]pyridazin-3-yl)pyridin-2-yl)piperazin-1-yl)ethyl)-2-oxo-2,3-dihydro-1H-benzo[d]imidazol-1-yl)piperidine-2,6-dione] | 23.6 nM |  |
| > 80% | O=C1CCC(N2Cc3cc(C4CN(CC5CCN(c6ccc(C(=O)Nc7n[nH]c8ccc(Cc9cc(F)cc(F)c9)cc78)c(NC7CCOCC7)c6)CC5)C4)ccc3C2=O)C(=O)N1 (stereo not shown) [TR-330, N-(5-(3,5-Difluorobenzyl)-1H-indazol-3-yl)-4-(4-((3-(2-(2,6-dioxopiperidin-3-yl)-1-oxoisoindolin-5-yl)azetidin-1-yl)methyl)piperidin-1-yl)-2-((tetrahydro-2H-pyran-4-yl)amino)benzamide] | 28.5 nM |  |
| > 80% | Cn1c(=O)n(C2CCC(=O)NC2=O)c2cccc(CCCN3CCN(c4cccc(-c5cnc6ccc(N7CCC[C@@H]7c7cccc(F)c7)nn56)n4)CC3)c21 (stereo partly drawn) [TR-240, 3-(4-(3-(4-(6-(6-((R)-2-(3-fluorophenyl)pyrrolidin-1-yl)imidazo[1,2-b]pyridazin-3-yl)pyridin-2-yl)piperazin-1-yl)propyl)-3-methyl-2-oxo-2,3-dihydro-1H-benzo[d]imidazol-1-yl)piperidine-2,6-dione] | 16.1 nM |  |
| > 80% | O=C1CCC(N2Cc3ccc(C#CCN4CCN(c5ccc(C(=O)Nc6n[nH]c7ccc(Cc8cc(F)cc(F)c8)cc67)c(NC6CCOCC6)c5)CC4)cc3C2=O)C(=O)N1 (stereo not drawn) [TR-298, N—(S-(3,5-Difluorobenzyl)-1H-indazol-3-yl)-4-(4-(3-(2-(2,6-dioxopiperidin-3-yl)-3-oxoisoindolin-5-yl)prop-2-yn-1-yl)piperazin-1-yl)-2-((tetrahydro-2/-pyran-4-yl)amino)benzamide] | 30 nM |  |
| > 80% | Cn1c(=O)n(C2CCC(=O)NC2=O)c2cccc(C#CCCN3CCN(c4cccc(-c5cnc6ccc(N7CCC[C@@H]7c7cccc(F)c7)nn56)n4)CC3)c21 (stereo partly drawn) [TR-239, 3-(4-(4-(4-(6-(6-((R)-2-(3-Fluorophenyl)pyrrolidin-1-yl)imidazo[1,2-b]pyridazin-3-yl)pyridin-2-yl)piperazin-1-yl)but-1-yn-1-yl)-3-methyl-2-oxo-2,3-dihydro-1H-benzo[d]imidazol-1-yl)piperidine-2,6-dione] | 45.9 nM |  |
| > 80% | O=C1CCC(N2C(=O)c3ccc(C4CN(CC5CCN(c6cccc(-c7cnc8ccc(N9CCC[C@@H]9c9cccc(F)c9)nn78)n6)CC5)C4)cc3C2=O)C(=O)N1 (stereo partly drawn) [TR-293, 2-(2,6-dioxopiperidin-3-yl)-5-(1-((1-(6-(6-((R)-2-(3-fluorophenyl)pyrrolidin-1-yl)imidazo[1,2-b]pyridazin-3-yl)pyridin-2-yl)piperidin-4-yl)methyl)azetidin-3-yl)isoindoline-1,3-dione] | 9.5 nM |  |
|  | O=C1CCC(N2C(=O)c3ccc(NCCOCCOCCOCCOCCOCCC(=O)N4CCC(Nc5cccc(C(=O)Nc6cnn7ccc(N8CCC[C@@H]8c8cc(F)ccc8F)nc67)n5)CC4)cc3C2=O)C(=O)N1 (stereo partly drawn) [CPD-477, N-(5-((R)-2-(2,5-difluorophenyl)pyrrolidin-1-yl)pyrazolo[1,5-a]pyrimidin-3-yl)-6-((1-(1-((2-(2,6-dioxopiperidin-3-yl)-1,3-dioxoisoindolin-5-yl)amino)-3,6,9,12,15-pentaoxaoctadecan-18-oyl)piperidin-4-yl)amino)picolinamide] |  | percent degradation of TPM3-TRKA protein at 0.01 µM (TPM3-TRKA fusion protein; [3]): 50 to 80%; IC50 (KM12 cells; [4]): 51.7 nM |
| > 80% | O=C1CCC(N2C(=O)c3ccc(CN4CC(CN5CCN(c6ccc(C(=O)Nc7n[nH]c8ccc(Cc9cc(F)cc(F)c9)cc78)c(NCCF)c6)CC5)C4)cc3C2=O)C(=O)N1 (stereo not shown) [TR-251] | 46.5 nM |  |
| > 80% | O=C1CCC(N2C(=O)c3ccc(CN4CCC(N5CCN(c6ccc(C(=O)Nc7n[nH]c8ccc(Cc9cc(F)cc(F)c9)cc78)c(NC7CCOCC7)c6)CC5)C4)cc3C2=O)C(=O)N1 (stereo not shown) [TR-285, N-(5-(3,5-difluorobenzyl)-1H-indazol-3-yl)-4-(4-(1-((2-(2,6-dioxopiperidin-3-yl)-1,3-dioxoisoindolin-5-yl)methyl)pyrrolidin-3-yl)piperazin-1-yl)-2-((tetrahydro-2H-pyran-4-yl)amino)benzamide] | 9.7 nM |  |
|  | Cn1c(=O)n(C2CCC(=O)NC2=O)c2cccc(CCCCN3CCN(c4cccc(-c5cnc6ccc(N7CCC[C@@H]7c7cccc(F)c7)nn56)n4)CC3)c21 (stereo partly drawn) [TR-241, 3-(4-(4-(4-(6-(6-((R)-2˜ (3-fluorophenyl)pyrrolidin-1-yl)imidazo[1,2-b]pyridazin-3-yl)pyridin-2-yl)piperazin-1-yl)butyl)-3-methyl-2-oxo-2,3-dihydro-1H-benzo[d]imidazol-1-yl)piperidine-2,6-dione] |  | percent degradation of TPM3-TRKA protein at 0.01 µM (TPM3-TRKA fusion protein; KM12, 16 h): > 80%; IC50 (KM12 cells; KM12, 72 h): 6.1 nM |
